For orientation: IC50 means the concentration that gives 50% inhibition.

Where two headings read alike, the source gives them in different places. Positions of bridges follow the written chain, without caps; N, C: chain ends. Non-standard residues stand in square brackets, D forms with d. Residues, ends and D or L forms follow the SMILES beside them. Chains are numbered I, II in the order given. No end group written: not given here. 4Abz = Nc1ccc(C(=O)O)cc1; 2Abz = Nc1ccccc1C(=O)O; Ahx = NCCCCCC(=O)O

Series [1] can be described thus: RP-HPLC retention time as measure of hydrophobicity. It is filed as physicochemical. Particulars: Chromolith RP-18e, water/ACN with 0.05% TFA, 5-50% B from 1 to 9 min, 2 ml min^−1, 210 nm, used as measure of hydrophobicity. The procedure: The peptides were analysed using a Hitachi Primaide-DAD 1110 chromatograph and a Chromolith RP-18e High Resolution column (100 × 4.1 i.d. mm) (Merck, Darmstadt, Germany). Water containing 0.05% TFA was used as solvent A, and ACN containing 0.05% TFA was used as solvent B. The elution programme used was […] at a flow rate of 2 ml min^−1 and a wavelength of 210 nm. Ten microlitres of each peptide solution was injected at an approximate concentration of […].

Series [2] has as its system MCF-7 breast cancer line. It is filed as cell-based, human. The note with it: 2 h. The procedure:
The MTT assay was performed in accordance with previous reports. Briefly, the cells were seeded with a complete medium in 96-well plates at a rate of 10 000 cells and 100 µl per well, and adhesion to the plates was allowed for 24 h. Later, the complete medium was removed, and an incomplete medium was added for synchronization for another 24 h. The cells were then incubated at 37°C for 2 h with 100 µl of peptide at the evaluated concentrations (200, 100, 50, 25, 12.5 and 6.25 µg ml^−1). Next, the peptide was removed from the well and 100 µl of incomplete medium with 10% MTT was added and incubated for 4 h. The medium was replaced with 100 µl of isopropanol, and after 30 min of incubation at 37°C, the absorbance was measured at 575 nm. As a negative control, an incomplete culture medium with 10% MTT was used, and as a positive control, cells without MTT treatment were used. The IC50 value was determined from figure 1 (peptide concentration versus per cent cell viability) using a nonlinear regression model with variable slope and GraphPad Prism 9 statistical analysis software.

The test system of series [3] is MCF-7 breast cancer line. The note with it: cytotoxic effect against MCF-7 cells, not tested in this paper; cited from earlier work. An excerpt: Dimeric peptides derived from peptide ^26[F]: (RRWQWRFKKLG)2-K-Ahx were synthesized and characterized. The analogues with the highest synthetic viability in terms of purity and yield were ^26[1-Nal] and ^26[hF].
Series [4] concerns MDA-MB-231 breast cancer cell line. The note with it: cytotoxic effect; cited from earlier work. An excerpt:
(§1) Solid-phase peptide synthesis has allowed chemical and structural modifications to be made to ACPs in order to enhance their activity and increase their resistance to proteolytic degradation.

The test system of series [5] is MDA-MB-468 breast cancer cell line. Particulars: cytotoxic effect; cited from earlier work.
Text: as §1

Series [6] deals with human breast cancer lines MDA-MB-468 and MDA-MB-231. Particulars: 4 mg via intra-tumoural route, cited from earlier work. Here is the method:
Mice treated with peptide ^26[F] recovered completely after 24 h, and the survival rate was 100% after one week of observation. […] Peptide ^26[F] was inoculated in female mic ...

On to `CC(C)C[C@H](NC(=O)[C@H](CCCCN)NC(=O)[C@H](CCCCN)NC(=O)c1ccccc1NC(=O)[C@H](Cc1c[nH]c2ccccc12)NC(=O)[C@H](CCC(N)=O)NC(=O)[C@H](Cc1c[nH]c2ccccc12)NC(=O)[C@H](CCCNC(=N)N)NC(=O)[C@@H](N)CCCNC(=N)N)C(=O)NCC(=O)NCCCC[C@H](NC(=O)CNC(=O)[C@H](CC(C)C)NC(=O)[C@H](CCCCN)NC(=O)[C@H](CCCCN)NC(=O)c1ccccc1NC(=O)[C@H](Cc1c[nH]c2ccccc12)NC(=O)[C@H](CCC(N)=O)NC(=O)[C@H](Cc1c[nH]c2ccccc12)NC(=O)[C@H](CCCNC(=N)N)NC(=O)[C@@H](N)CCCNC(=N)N)C(=O)NCCCCCC(N)=O` [^26[2-Abz], (RRWQWR-2-Abz-KKLG)2-K-Ahx] (I: H-RRWQW[2Abz]KKLGK[Ahx]-NH2 / II: H-RRWQW[2Abz]KKLG; amide I:11-II:C; N-terminus assumed), for which the “tR” value in series [1] is 5.9 min.
In the case of `CC(C)C[C@H](NC(=O)[C@H](CCCCN)NC(=O)[C@H](CCCCN)NC(=O)c1ccc(NC(=O)[C@H](Cc2c[nH]c3ccccc23)NC(=O)[C@H](CCC(N)=O)NC(=O)[C@H](Cc2c[nH]c3ccccc23)NC(=O)[C@H](CCCNC(=N)N)NC(=O)[C@@H](N)CCCNC(=N)N)cc1)C(=O)NCC(=O)NCCCC[C@H](NC(=O)CNC(=O)[C@H](CC(C)C)NC(=O)[C@H](CCCCN)NC(=O)[C@H](CCCCN)NC(=O)c1ccc(NC(=O)[C@H](Cc2c[nH]c3ccccc23)NC(=O)[C@H](CCC(N)=O)NC(=O)[C@H](Cc2c[nH]c3ccccc23)NC(=O)[C@H](CCCNC(=N)N)NC(=O)[C@@H](N)CCCNC(=N)N)cc1)C(=O)NCCCCCC(N)=O` [^26[4-Abz], (RRWQWR-4-Abz-KKLG)2-K-Ahx] (I: H-RRWQW[4Abz]KKLGK[Ahx]-NH2 / II: H-RRWQW[4Abz]KKLG; amide I:11-II:C; N-terminus assumed), the midpoint of inhibition in the series on MCF-7 breast cancer line [2], the IC50, lay at 49 µM. Also, the “tR” value in series [1] is 5.9 min.
For the compound “(^20RRWQWRMKKLG^30)2-K-Ahx [LfcinB (20–30)2]”, the half-maximal inhibitory concentration (IC50) in the series on MCF-7 breast cancer line [3] is not below 60 µM; in series [4] it was 14 µM; in series [5], 5 µM.
“Bovine lactoferricin (FKCRRWQWRMKKLGAPSITCVRRAF; ends and bridges not checked; cysteine pairing not given here; UniProt P24627 36-60, looked up) [LfcinB, 25-amino acid ACP generated by gastric pepsin digestion of bovine lactoferrin]”: the safety on administration result in series [6] (NOD-SCI-gamma mice) is reported as “safe”. The anti-tumoural effect entry in series [6] (xenografts of MDA-MB-468 and MDA-MB-231 in NOD-SCI-gamma mice) was “had anti-tumoural effect”.

These data come from paper PMC10265003 (Royal Society Open Science, 2023).
